Test results as given in ChEMBL document CHEMBL1156377, “New cytotoxic N-methylated beta-carboline alkaloids from the marine ascidian Eudistoma gilboverde” (J Nat Prod, 2001).
≈ marks a conversion by molar mass, not a printed value.

Columns and labels:
Type in all cases: functional, cell-based
[1] = system: OVCAR-3; assay: Cytotoxicity against human OVCAR-3 cells after 2 days; conditions: OVCAR-3, 48 h
[2] = Cytotoxicity against human LOX cells after 2 days; conditions: 48 h
[3] = system: MOLT-4; assay: Cytotoxicity against human MOLT4 cells after 2 days; conditions: MOLT-4, 48 h
[4] = system: COLO 205; assay: Cytotoxicity against human COLO205 cells after 2 days; conditions: COLO 205, 48 h

Structure (SMILES)	IC50 [1] [µg/mL]	IC50 [2] [µg/mL]	IC50 [3] [µg/mL]	IC50 [4] [µg/mL]
C[n+]1ccc2c(c1)[nH]c1cc(Br)c(O)cc12.[Cl-]	20	15.1	17.5	15.1
CSC[C@H](c1nccc2c1[nH]c1ccc(O)c(Br)c12)N(C)C	0.98 (≈ 2.58 µM)	0.41 (≈ 1.08 µM)	0.57 (≈ 1.5 µM)	0.42 (≈ 1.1 µM)
C[n+]1ccc2c(c1)[nH]c1ccc(O)c(Br)c12.[Cl-]	20	15	16.6	19.1
